# From patent US11286252B2, “Alkene spirocyclic compounds as farnesoid X receptor modulators” (BRISTOL-MYERS SQUIBB COMPANY, priority 2017, dated 2022)
# Biological target: T1, human FXR (Homo sapiens, UniProt Q96RI1)
# T1 construct: expressed in transfected cells; host or cells: HEK293 cells stably carrying a 5xGal4-response-element firefly luciferase reporter, transiently transfected with pcDNA3.1-Gal4-FXR
# T1 sequence (Q96RI1 262-486 limits assumed): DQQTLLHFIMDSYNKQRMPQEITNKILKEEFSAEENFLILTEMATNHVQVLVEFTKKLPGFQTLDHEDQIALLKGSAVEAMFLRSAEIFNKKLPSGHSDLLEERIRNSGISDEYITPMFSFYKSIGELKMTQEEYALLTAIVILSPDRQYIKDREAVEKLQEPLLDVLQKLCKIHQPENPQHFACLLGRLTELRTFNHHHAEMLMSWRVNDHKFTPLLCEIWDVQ
# Experiment: transient human FXR/Gal4-luciferase reporter assay
# Format: cell-based
# Details: Gal4-hFXR fusion construct, luciferase reporter HEK293 cells; response relative to 8 μM GW-4064
# Experimental: The exemplified compounds of the present invention were tested in the transient human FXR/Gal4-luciferase reporter assay, and assay results were reported in Table 1 and Examples 1 to 3 together with other analytical data.
# A Gal4-hFXR fusion construct reporter system was used as the primary assay to characterize compound activity. A construct including 5 copies of the Gal4 promoter response element upstream of a firefly luciferase reporter cDNA was stably expressed in HEK293 cells. This reporter cell line was maintained in Dulbecco's Modified Eagle's medium (DMEM; Gibco) supplemented with 1% penicillin-streptomycin (P/S) solution, 500 μg/mL Zeocin and 10% charcoal/dextran-treated fetal bovine serum (cs-FBS) at 37° C. in a humidified 5% CO2 atmosphere. Another plasmid was constructed in which the human cytomegalovirus promoter in the pcDNA3.1 vector directs the expression of the cDNA encoding a fusion protein comprised of the DNA binding domain from the Gal4 transcription factor fused to the ligand binding domain from human FXR.
# The day prior to transfection, the reporter cells in culture are detached from the plate with trypsin and plated into a T75 flask at a sufficient density to achieve approximately 90% confluence the next morning. The transfection reagents are prepared by separately diluting 25 μg of the pcDNA3.1-Gal4-FXR plasmid into 1.87 mL of Opti-MEM (Thermo-Fisher), and 40 μL of Lipofectamine 2000 (Thermo-Fisher) into 1.87 mL of Opti-MEM, and then adding the diluted DNA solution into the diluted Lipofectamine 2000 solution and incubating at room temperature for 15-20 minutes. The mixture is further diluted with 10 mL of a solution comprised of DMEM, 10% cs-FBS, and 1% P/S immediately prior to transferring to the cells. The maintenance culture media is aspirated from the cells and the final transfection mixture is added before the cells are incubated overnight at 37° C. in a humidified 5% CO2 atmosphere. This protocol can be scaled up, and the transiently transfected cells can be cryopreserved in an assay-ready format.
# For compound testing, 100 nL of the compounds (serial dilutions in DMSO) are dispensed with an Echo acoustic dispenser (Labcyte) into the wells of a Corning/Costar clear bottom 384-well white plate. The transfected cells are harvested, counted, and diluted such that 10-25,000 cells in 25 μL are plated into each well of the 384-well compound assay plate. The compound-treated cells are incubated overnight at 37° C. in a humidified 5% CO2 atmosphere. The next morning 25 μL of Steady-Glo (Promega) are added to each well of the plate, the mixture is incubated for 15 min. with shaking, and luminescence is measured on an Envision (Perkin Elmer) plate reader. Background counts from cells treated with DMSO alone are subtracted from all raw counts, and the corrected values are converted to a percentage of the control response attained with 8 μM GW-4064.
row,EC50,SMILES
1,155 nM,"COc1cc(C(=O)O)nc2ccc(N3CC4(CC(/C=C/c5c(-c6c(Cl)cncc6Cl)noc5C5CC5)C4)C3)cc12 [Example 1, (E)-6-(6-(2-(5-Cyclopropyl-3-(3,5-dichloropyridin-4-yl)isoxazol-4-yl)vinyl)-2-azaspiro[3.3]heptan-2-yl)-4-methoxyquinoline-2-carboxylic acid]"
2,501 nM,"COc1cc(C(=O)O)nc2ccc(N3CC4(CC(/C=C/c5c(-c6ccncc6Cl)noc5C5CC5)C4)C3)cc12 [Example 2, (E)-6-(6-(2-(3-(3-chloropyridin-4-yl)-5-cyclopropylisoxazol-4-yl)vinyl)-2-azaspiro[3.3]heptan-2-yl)-4-methoxyquinoline-2-carboxylic acid]"

row,SMILES,EC50
1,"O=C(O)c1cc(OC2CCC2)c2cc(N3CC4(CC(/C=C/c5c(-c6cccnc6C(F)(F)F)noc5C5CC5)C4)C3)ccc2n1 [Example 3, (E)-4-Cyclobutoxy-6-(6-(2-(5-cyclopropyl-3-(2-(trifluoromethyl)pyridin-3-yl)isoxazol-4-yl)vinyl)-2-azaspiro[3.3]heptan-2-yl)quinoline-2-carboxylic acid]",86 nM

# Same assay, conditions: Gal4-hFXR fusion construct, luciferase reporter HEK293 cells; response relative to 8 μM GW-4064; unit inferred
row,EC50,SMILES
1,85 nM,Cc1c(OCC2CC3(CC(/C=C/c4c(-c5c(Cl)cncc5Cl)noc4C4CC4)C3)C2)nn(C(C)C)c1C(=O)O (stereo not shown) [Example 59]
2,142 nM,Cc1cc(OCC2CC3(CC(/C=C/c4c(-c5ccccc5C(F)(F)F)noc4C4CC4)C3)C2)cnc1C(=O)O (stereo not shown) [Example 50]
3,302 nM,CCc1nc(C(=O)O)cc2ccc(N3CC4(CC(/C=C/c5c(-c6c(Cl)cncc6Cl)noc5C5CC5)C4)C3)cc12 [Example 14]
4,530 nM,O=C(O)c1cc(C(F)(F)F)c2cc(N3CC4(CC(/C=C/c5c(-c6c(Cl)cncc6Cl)noc5C5CC5)C4)C3)ccc2n1 [Example 7]
5,140 nM,O=C(O)c1cc(C(F)(F)F)c2cc(N3CC4(CC(/C=C/c5c(-c6ccncc6Cl)noc5C5CC5)C4)C3)ccc2n1 [Example 6]
6,33 nM,O=C(O)c1cc(O[C@@H]2CCOC2)c2cc(N3CC4(CC(/C=C/c5c(-c6ccccc6C(F)(F)F)noc5C5CC5)C4)C3)ccc2n1 [Example 20]
7,114 nM,O=C(O)c1cc(OC2COC2)c2cc(N3CC4(CC(/C=C/c5c(-c6c(Cl)cncc6Cl)noc5C5CC5)C4)C3)ccc2n1 [Example 24]
8,1630 nM,COc1cc(C(=O)O)nc2ccc(N3CC4(CC(/C=C/c5c(-c6c(Cl)cncc6Cl)noc5C5CC5)C4)C3)nc12 [Example 28]
9,75 nM,O=C(O)c1cc2ccc(OCC3CC4(CC(/C=C/c5c(-c6c(Cl)cncc6Cl)noc5C5CC5)C4)C3)cc2nn1 (stereo not shown) [Example 57]
10,22 nM,O=C(O)c1cc(C(F)(F)F)c2cc(OCC3CC4(CC(/C=C/c5c(-c6c(Cl)cncc6Cl)noc5C5CC5)C4)C3)ccc2n1 (stereo not shown) [Example 46]
11,29 nM,CC(C)Oc1cc(C(=O)O)nc2ccc(N3CC4(CC(/C=C/c5c(-c6ccccc6C(F)(F)F)noc5C5CC5)C4)C3)cc12 [Example 12]
12,188 nM,CN1CCN(c2cc(C(=O)O)nc3ccc(OCC4CC5(CC(/C=C/c6c(-c7c(Cl)cncc7Cl)noc6C6CC6)C5)C4)cc23)CC1 (stereo not shown) [Example 66]
13,40 nM,O=C(O)c1cccc(OCC2CC3(CC(/C=C/c4c(-c5c(Cl)cncc5Cl)noc4C4CC4)C3)C2)c1 (stereo not shown) [Example 47]
14,18 nM,O=C(O)c1cc(O[C@H]2CCOC2)c2cc(N3CC4(CC(/C=C/c5c(-c6ccccc6C(F)(F)F)noc5C5CC5)C4)C3)ccc2n1 [Example 21]
15,60 nM,O=C(O)c1cc(C(F)(F)F)c2cc(N3CC4(CC(/C=C/c5c(-c6c(Cl)cccc6Cl)noc5C5CC5)C4)C3)ccc2n1 [Example 4]
16,22 nM,O=C(O)c1ncc(OCC2CC3(CC(/C=C/c4c(-c5c(Cl)cncc5Cl)noc4C4CC4)C3)C2)cc1OC1CCC1 (stereo not shown) [Example 58]
17,111 nM,COc1cc(C(=O)O)nc2ccc(N3CC4(CC(/C=C/c5c(-c6cccnc6C(F)(F)F)noc5C5CC5)C4)C3)cc12 [Example 22]
18,302 nM,CN1CCN(c2cc(C(=O)O)nc3ccc(OCC4CC5(CC(/C=C/c6c(-c7ccccc7C(F)(F)F)noc6C6CC6)C5)C4)cc23)CC1 (stereo not shown) [Example 67]
19,393 nM,NC(=O)c1ncc(OCC2CC3(CC(/C=C/c4c(-c5ccccc5C(F)(F)F)noc4C4CC4)C3)C2)cc1OC1CCC1 (stereo not shown) [Example 63]
20,52 nM,O=C(O)c1cc(OC2COC2)c2cc(N3CC4(CC(/C=C/c5c(-c6ccccc6C(F)(F)F)noc5C5CC5)C4)C3)ccc2n1 [Example 18]

row,EC50,SMILES
1,187 nM,O=C(O)c1ccc2cc(OCC3CC4(CC(/C=C/c5c(-c6ccccc6C(F)(F)F)noc5C5CC5)C4)C3)ccc2n1 (stereo not shown) [Example 53]
2,50 nM,O=C(O)c1ncc(OCC2CC3(CC(/C=C/c4c(-c5c(Cl)cncc5Cl)noc4C4CC4)C3)C2)cc1C(F)(F)F (stereo not shown) [Example 55]
3,122 nM,O=C(O)c1cc2ccc(OCC3CC4(CC(/C=C/c5c(-c6ccccc6C(F)(F)F)noc5C5CC5)C4)C3)cc2nn1 (stereo not shown) [Example 54]
4,99 nM,Cn1nc(C(=O)O)cc1OCC1CC2(CC(/C=C/c3c(-c4ccccc4C(F)(F)F)noc3C3CC3)C2)C1 (stereo not shown) [Example 51]
5,169 nM,COc1nc(C(=O)O)cc2ccc(N3CC4(CC(/C=C/c5c(-c6ccccc6C(F)(F)F)noc5C5CC5)C4)C3)cc12 [Example 19]
6,231 nM,O=C(O)c1cc(O[C@@H]2CCOC2)c2cc(N3CC4(CC(/C=C/c5c(-c6cccnc6C(F)(F)F)noc5C5CC5)C4)C3)ccc2n1 [Example 26]
7,667 nM,NC(=O)c1ncc(OCC2CC3(CC(/C=C/c4c(-c5ccccc5C(F)(F)F)noc4C4CC4)C3)C2)cc1OC1CC1 (stereo not shown) [Example 64]
8,178 nM,NC(=O)Cc1ccc(OCC2CC3(CC(/C=C/c4c(-c5ccccc5C(F)(F)F)noc4C4CC4)C3)C2)cc1 (stereo not shown) [Example 49]
9,137 nM,O=C(O)c1cc(C(F)(F)F)c2cc(N3CC4(CC(/C=C/c5c(-c6ccccc6C(F)(F)F)noc5C5CC5)C4)C3)ccc2n1 [Example 8]
10,85 nM,CC(C)Oc1cc(C(=O)O)nc2ccc(N3CC4(CC(/C=C/c5c(-c6ncccc6C(F)(F)F)noc5C5CC5)C4)C3)cc12 [Example 15]
11,153 nM,NC(=O)c1ncc(OCC2CC3(CC(/C=C/c4c(-c5c(Cl)cncc5Cl)noc4C4CC4)C3)C2)cc1OC1CCC1 (stereo not shown) [Example 65]
12,139 nM,"Cc1cc(OCC2CC3(CC(/C=C/c4c(-c5ccccc5C(F)(F)F)noc4C4CC4)C3)C2)cnc1C(=O)O (single isomer, unassigned) [Example 31, (E)-5-((6-(2-(5-Cyclopropyl-3-(2-(trifluoromethyl)phenyl)isoxazol-4-yl)vinyl)spiro [3.3]heptan-2-yl)methoxy)-3-methylpicolinic acid]"
13,268 nM,Cc1cc(C(=O)O)nc2sc(N3CC4(CC(/C=C/c5c(-c6ccccc6C(F)(F)F)noc5C5CC5)C4)C3)nc12 [Example 9]
14,667 nM,O=C(O)c1cc(F)c2nc(N3CC4(CC(/C=C/c5c(-c6c(Cl)cncc6Cl)noc5C5CC5)C4)C3)sc2c1 [Example 10]
15,153 nM,CCOc1cc(C(=O)O)nc2ccc(N3CC4(CC(/C=C/c5c(-c6cccnc6C(F)(F)F)noc5C5CC5)C4)C3)cc12 [Example 25]
16,104 nM,COc1cc(C(=O)O)nc2ccc(N3CC4(CC(/C=C/c5c(-c6ccccc6C(F)(F)F)noc5C5CC5)C4)C3)cc12 [Example 16]
17,36 nM,O=C(O)c1ncc(OCC2CC3(CC(/C=C/c4c(-c5ccccc5C(F)(F)F)noc4C4CC4)C3)C2)cc1OC1CCC1 (stereo not shown) [Example 62]
18,130 nM,O=C(O)c1ccc(N2CC3(CC(/C=C/c4c(-c5c(Cl)cccc5Cl)noc4C4CC4)C3)C2)cc1 [Example 5]
19,85 nM,O=C(O)c1cc(OC2CCC2)c2cc(N3CC4(CC(/C=C/c5c(-c6c(Cl)cncc6Cl)noc5C5CC5)C4)C3)ccc2n1 [Example 17]
20,34 nM,O=C(O)c1cc(OCC2CC3(CC(/C=C/c4c(-c5c(Cl)cncc5Cl)noc4C4CC4)C3)C2)n(C2CC2)n1 (stereo not shown) [Example 60]
